As usually defined, the melting point is the temperature of the solid-liquid transition. As a reminder, the IC50 is the midpoint of a concentration-inhibition curve.

Series [1] has as its system Human peripheral blood mononuclear cells. The experiment in a line: Human Concanavalin-A Proliferation Assay (Con HU Assay). Type of series: cell-based. The note with it: concanavalin-A stimulated human PBMC; for inhibition at 1 µM / inhibition at 100 µM / IC50 / inhibition at 10 µM: Homo sapiens, PBMC; for inhibition at 1 µM / inhibition at 100 µM / inhibition at 10 µM: 72 h, read-out: % Inhibition of proliferation (at concentrations of 1,10, or 100 μm); for inhibition at 100 µM: concentration 100 μm (in parentheses in the cell); for IC50: tritiated thymidine; for inhibition at 10 µM: concentration 10 μm (in parentheses in the cell). In a few lines:
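Proliferation read as tritiated thymidine uptake (0.5 μCi/well, 6 h pulse on day 3) in human PBMC cultured 3 days with 2.5 μg/ml (final) concanavalin-A. Cells, 50,000 per well in supplemented RPMI 1640 with 10% FBS, received compound 15 min before mitogen.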

[2] abbreviates: concentration 1 μm (in parentheses in the cell), 3 days.

Consider `CC(C(=O)Nc1ccc(-n2nc(C(F)(F)F)cc2C(F)(F)F)cc1)c1ccc(C(=O)c2cccs2)cc1` (stereo not drawn) [Example 177, N-[4-[3,5-bis(trifluoromethyl)-1H-pyrazol-1-yl]phenyl]-α-methyl-4-(2-thienylcarbonyl)benzeneacetamide], for which the melting point was under 80 °C. In addition, in series [1] (setting [2]), the “% Inhibition of proliferation (at concentrations of 1,10, or 100 μm)” value is on record as 4(1) %.
`O=C(Nc1ccc(-n2nc(C(F)(F)F)cc2C(F)(F)F)cc1)c1cc2ccccc2o1` [Example 19, N-[4-[3,5-bis(trifluoromethyl)-1H-pyrazol-1-yl]phenyl]-2-benzofurancarboxamide] displayed a melting point of 213 to 215 °C. Also, the inhibition at 1 µM in series [1] (setting [2]) was found to be 9%.
With `O=C(Nc1ccc(-n2nc(C(F)(F)F)cc2C(F)(F)F)cc1)C1CCNCC1` [Example 125, N-[4-[3,5-bis(trifluoromethyl)-1H-pyrazol-1-yl]phenyl]-4-piperidinecarboxamide], the melting point was 156 to 159 °C. In series [1] (setting [2]), the inhibition at 1 µM came out at 6%.
With `CC(C)=CC(=O)Nc1ccc(-n2nc(C(F)(F)F)cc2C(F)(F)F)cc1` [Example 102, N-[4-[3,5-bis(trifluoromethyl)-1H-pyrazol-1-yl]phenyl]-3-methyl-2-butenamide], the melting point is 150 to 152 °C. For the same molecule, in series [1] (3 days), the inhibition at 100 µM was found to be 100%. It took 503 nM to reach half-maximal inhibition in series [1] (IC50).
Molecule `O=C(Nc1ccc(-n2nc(C(F)(F)F)cc2C(F)(F)F)cc1)c1cccc(F)c1` [Example 146, N-[4-[3,5-bis(trifluoromethyl)-1H-pyrazol-1-yl]phenyl]-3-fluorobenzamide] returned a melting point of 148 to 151 °C. In addition, the inhibition at 100 µM in series [1] (3 days) was determined as 98%. For the same molecule, half-maximal inhibition in series [1] (IC50) required 269 nM.
Consider `O=C(Nc1ccc(-n2nc(C(F)(F)F)cc2C(F)(F)F)nc1)c1cc(F)c(F)cc1Cl` [Example 262, N-[2-[3,5-bis(trifluoromethyl)-1H-pyrazol-1-yl]-5-pyridinyl]-2-chloro-4,5-difluorobenzamide], for which the melting point was in the range of 113 to 116 °C. Besides, the inhibition at 10 µM in series [1] (3 days) turned out to be 100%. The molecule further yielded a concentration for half-maximal inhibition (IC50) in series [1] of 419 nM.
In turn, `COC(C(=O)Nc1ccc(-n2nc(C(F)(F)F)cc2C(F)(F)F)cc1)(c1ccccc1)C(F)(F)F` (stereo not drawn) [Example 55, N-[4-[3,5-bis(trifluoromethyl)-1H-pyrazol-1-yl]phenyl]-α-methoxy-α-(trifluoromethyl)benzeneacetamide] came in with a melting point of 127 to 129 °C. The inhibition at 1 µM in series [1] (setting [2]) was 13%.
`O=C(Cc1cc2ccccc2[nH]1)Nc1ccc(-n2nc(C(F)(F)F)cc2C(F)(F)F)cc1` [Example 170, N-[4-[3,5-bis(trifluoromethyl)-1H-pyrazol-1-yl]phenyl]-1H-indole-2-acetamide] had a melting point of 176 to 178 °C. Also, in series [1] (setting [2]), the inhibition at 1 µM came out at 25%.
In turn, `O=C(Nc1ccc(-n2nc(C(F)(F)F)cc2C(F)(F)F)cc1)c1ccno1` [Example 240, N-[4-[3,5-bis(trifluoromethyl)-1H-pyrazol-1-yl]phenyl]-5-isoxazolecarboxamide] yielded a melting point of 202 to 204 °C. In series [1] (3 days), the inhibition at 10 µM was determined as 84%. Moreover, in series [1], the 50% inhibitory concentration (IC50) was determined as 507 nM.
Molecule `CCOC(=O)c1cccc(NC(=O)Nc2ccc(-n3nc(C(F)(F)F)cc3C(F)(F)F)cc2)c1` [Example 13, ethyl 3-[[[[4-[3,5-bis(trifluoromethyl)-1H-pyrazol-1-yl]phenyl]amino]carbonyl]amino]-benzoate] had a melting point of 211 to 212 °C. Moreover, the inhibition at 100 µM in series [1] (3 days) stood at 99%. This molecule registered a half-maximal inhibitory concentration (IC50) in series [1] of 2840 nM.
`O=C(Nc1ccc(-n2nc(C(F)(F)F)cc2C(F)(F)F)cc1)c1c(F)cc(Cl)cc1Cl` [Example 232, N-[4-[3,5-bis(trifluoromethyl)-1H-pyrazol-1-yl]phenyl]-2,4-dichloro-6-fluorobenzamide] had a melting point of 185 to 188 °C. Further, the inhibition at 10 µM in series [1] (3 days) is 99%. For the same molecule, in series [1], the IC50 was 172 nM.
Consider `O=C(Nc1ccc(-n2nc(C(F)(F)F)cc2OC(F)F)cc1)c1cccc(F)c1F` [Example 354, N-(4-(5-(difluoromethoxy)-3-(trifluoromethyl)-1H-pyrazol-1-yl)phenyl)-2,3-difluorobenzamide], for which the melting point lay in the range of 154 to 155 °C. The IC50 in series [1] was 75 nM.
With `O=C(Nc1ccc(-n2nc(C(F)(F)F)cc2C(F)(F)F)cc1)c1ccccc1C(F)(F)F` [Example 127, N-[4-[3,5-bis(trifluoromethyl)-1H-pyrazol-1-yl]phenyl]-2-(trifluoromethyl)benzamide], the melting point was in the range of 133 to 135 °C. For the same molecule, the inhibition at 100 µM in series [1] (3 days) worked out at 100%. Besides, half-maximal inhibition in series [1] (IC50) required 487 nM.
With `O=C(Nc1ccc(-n2nc(C(F)(F)F)cc2C(F)(F)F)cc1)c1ccc2c(c1)OCO2` [Example 148, N-[4-[3,5-bis(trifluoromethyl)-1H-pyrazol-1-yl]phenyl]-1,3-benzodioxole-5-carboxamide], the melting point is 222 to 224 °C. Also, the inhibition at 100 µM in series [1] (3 days) amounted to 94%. This molecule came in with an IC50 in series [1] of 529 nM.
Consider `Cc1cc(C)c(C(=O)Nc2ccc(-n3nc(C(F)(F)F)cc3C(F)(F)F)cc2)c(C)c1` [Example 78, N-[4-[3,5-bis(trifluoromethyl)-1H-pyrazol-1-yl]phenyl]-2,4,6-trimethylbenzamide], for which the melting point was 203 to 205 °C. In series [1] (3 days), the inhibition at 100 µM was determined as 95%. 607 nM corresponded to half-maximal inhibition in series [1] (IC50).
`O=C(Nc1ccc(-n2nc(C(F)(F)F)cc2C(F)(F)F)cc1)c1ccccc1F` [Example 114, N-[4-[3,5-bis(trifluoromethyl)-1H-pyrazol-1-yl]phenyl]-2-fluorobenzamide] had a melting point of 188 to 190 °C. In series [1] (3 days), the inhibition at 100 µM was 98%. This molecule also showed a half-maximal inhibitory concentration (IC50) in series [1] of 84 nM.
`O=C(Nc1ccc(-n2nc(C(F)(F)F)cc2C(F)(F)F)cc1)c1cnns1` [Example 244, N-[4-[3,5-bis(trifluoromethyl)-1H-pyrazol-1-yl]phenyl]-1,2,3-thiadiazole-5-carboxamide] returned a melting point of 213 to 214 °C. The inhibition at 10 µM in series [1] (3 days) amounted to 94%. In series [1], this molecule came in with an IC50 of 523 nM.
`O=C(Nc1ccc(-n2nc(C(F)(F)F)cc2C(F)(F)F)cc1)c1ccc(CO)cc1` [Example 107, N-[4-[3,5-bis(trifluoromethyl)-1H-pyrazol-1-yl]phenyl]-4-(hydroxymethyl)benzamide]: the melting point lay within 213 to 214 °C. The inhibition at 10 µM in series [1] (3 days) is 99%. This molecule also yielded a 50% inhibitory concentration (IC50) in series [1] of 304 nM.
For the molecule `CSc1cc(C(F)(F)F)nn1-c1ccc(NC(=O)c2cccnc2F)cc1` [Example 316, 2-fluoro-N-(4-(5-(methylsulfanyl)-3-(trifluoromethyl)-1H-pyrazol-1-yl)phenyl)nicotinamide], the melting point fell in the range of 167 to 168 °C. Moreover, in series [1], the IC50 came out at 41 nM.
Regarding `Cc1noc(C)c1C(=O)Nc1ccc(-n2nc(C(F)(F)F)cc2C)cc1` [Example 283, 3,5-Dimethyl-N-[4-[5-methyl-3-(trifluoromethyl)-1H-pyrazol-1-yl]phenyl]-4-isoxazolecarboxamide], the melting point is 180 to 181 °C. The inhibition at 100 µM in series [1] (3 days) turned out to be 99%. In series [1], half-maximal inhibition (IC50) required 1040 nM.
The molecule `CSCCC(=O)Nc1ccc(-n2nc(C(F)(F)F)cc2C(F)(F)F)cc1` [Example 65, N-[4-[3,5-bis(trifluoromethyl)-1H-pyrazol-1-yl]phenyl]-3-(methylthio)propanamide] gave a melting point of 122 to 123 °C. The inhibition at 100 µM in series [1] (3 days) worked out at 98%. Besides, the IC50 in series [1] turned out to be 1820 nM.
In turn, `O=C(Nc1ccc(-n2nc(C(F)(F)F)cc2C(F)(F)F)cc1)c1c(F)cc(F)cc1F` [Example 229, N-[4-[3,5-bis(trifluoromethyl)-1H-pyrazol-1-yl]phenyl]-2,4,6-trifluorobenzamide] showed a melting point of 183 to 185 °C. Further, the inhibition at 10 µM in series [1] (3 days) is 99%. For the same molecule, in series [1], it took 40 nM to reach half-maximal inhibition (IC50).
Consider `Cc1nnsc1C(=O)Nc1ccc(-n2nc(-c3nccs3)cc2C#N)cc1` [Example 340, N-(4-(5-cyano-3-(1,3-thiazol-2-yl)-1H-pyrazol-1-yl)phenyl)-4-methyl-1,2,3-thiadiazole-5-carboxamide], for which the melting point was determined as 230 °C. Further, the IC50 in series [1] was found to be 251 nM.
`COc1cc(Cl)ccc1C(=O)Nc1ccc(-n2nc(C(F)(F)F)cc2C(F)(F)F)cc1` [Example 176, N-[4-[3,5-Bis(trifluoromethyl)-1H-pyrazol-1-yl]phenyl]-4-chloro-2-methoxybenzamide] showed a melting point of 178 to 180 °C. Further, the inhibition at 1 µM in series [1] (setting [2]) was found to be 12%.
In the case of `FC(F)(F)c1cc(C(F)(F)F)n(-c2ccc(NCc3ccccc3Cl)cc2)n1` [Example 82, N-[4-[3,5-bis(trifluoromethyl)-1H-pyrazol-1-yl]phenyl]-2-chlorobenzenemethanamine], the melting point came out at 240 °C. The inhibition at 100 µM in series [1] (3 days) is 100%. The same molecule displayed a 50% inhibitory concentration (IC50) in series [1] of 468 nM.
For `CS(=O)(=O)c1ccc(C(=O)Nc2ccc(-n3nc(C(F)(F)F)cc3C(F)(F)F)cc2)c(Cl)c1` [Example 207, N-[4-[3,5-bis(trifluoromethyl)-1H-pyrazol-1-yl]phenyl]-2-chloro-4-(methylsulfonyl)benzamide], the melting point lay in the range of 219 to 220 °C. Further, the inhibition at 10 µM in series [1] (3 days) came to 100%. The molecule further displayed an IC50 in series [1] of 372 nM.

These data come from patent publication US20010044445A1, “AZOLE INHIBITORS OF CYTOKINE PRODUCTION” (priority 1999, published 2001).
